Results as given in article PMC6066355, “Probing the binding site of novel selective positive allosteric modulators at the M1 muscarinic acetylcholine receptor” (Biochemical Pharmacology, 2018).
Changes are numbered by the printed parent chain. Like-named read-outs stand apart in the source and are kept apart here.

Experiments:
Experiment in all cases: Whole cell [3H]NMS binding inhibition/interaction assay (ACh ± PAM), FlpIn CHO cells
F77^2.56I M1 mAChR = molecular target: T1, F77^2.56I M1 mAChR (Homo sapiens, UniProt P11229, F77I); conditions: for Logα NMS (logarithm of binding cooperativity between [3H]NMS and modulator): constrained to −2 where preferred model by F-test
T1 construct: expressed in transfected cells
T1 sequence (P11229 1-460 F77I): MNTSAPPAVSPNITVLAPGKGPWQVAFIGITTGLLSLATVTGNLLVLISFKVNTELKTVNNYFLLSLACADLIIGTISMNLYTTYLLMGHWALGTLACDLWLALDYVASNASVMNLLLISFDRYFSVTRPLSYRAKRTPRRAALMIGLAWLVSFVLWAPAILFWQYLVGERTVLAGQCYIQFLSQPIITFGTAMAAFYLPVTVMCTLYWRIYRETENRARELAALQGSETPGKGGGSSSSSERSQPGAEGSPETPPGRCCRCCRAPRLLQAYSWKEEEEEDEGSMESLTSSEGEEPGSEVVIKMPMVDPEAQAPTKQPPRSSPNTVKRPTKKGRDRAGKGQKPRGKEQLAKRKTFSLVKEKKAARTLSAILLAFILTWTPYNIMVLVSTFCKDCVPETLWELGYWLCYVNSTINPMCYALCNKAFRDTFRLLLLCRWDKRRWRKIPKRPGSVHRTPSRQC
Description: (§1) Saturation binding assays were performed to estimate the expression levels and equilibrium dissociation constant of the radioligand (KD). FlpIn CHO cells stably expressing the WT or mutant c-myc hM1 mAChRs were plated at the density of 25,000 per well of 96-well white clear bottom Isoplates (PerkinElmer Life Sciences, Boston, MA), and grown overnight at 37 °C. […] Atropine at the final concentration of 100 µM was used to determine non-specific binding. The assays were terminated by rapid removal of the radioligand, and two washes with 100 µl/well ice-cold 0.9% NaCl buffer.
(§2) All data were analysed using GraphPad Prism 7 (San Diego, CA). […] Binding interaction studies between orthosteric agonists and allosteric modulators were fitted to the following allosteric ternary complex model (Eq. (1)):(1) Y=BmaxD/D+KDKB/α^′B+KB1+I/KI+B/KB+αIB/KIKB where Bmax is the total number of receptors, [D], [B] and [I] denote the concentrations of radioligand, allosteric ligand, and orthosteric ligand, respectively, and KD, KB and KI represent their respective equilibrium dissociation constants. α′ and α are the cooperativity factors between the allosteric ligand and radioligand or orthosteric ligand, respectively.

Y179^ECL2A M1 mAChR = molecular target: T2, Y179^ECL2A M1 mAChR (Homo sapiens, UniProt P11229, Y179A); conditions: affinity and cooperativity could not be estimated
T2 construct: expressed in transfected cells
T2 sequence (P11229 1-460 Y179A): T1 sequence (P11229 1-460 F77I) with I77F, Y179A
Description: as §1, §2

W400^7.35A M1 mAChR = molecular target: T3, W400^7.35A M1 mAChR (Homo sapiens, UniProt P11229, W400A); conditions: affinity and cooperativity could not be estimated
T3 construct: expressed in transfected cells
T3 sequence (P11229 1-460 W400A): T1 sequence (P11229 1-460 F77I) with I77F, W400A
Description: as §1, §2

Row | Structure (SMILES) | Logα ACh (logarithm of binding cooperativity between ACh and modulator) (F77^2.56I M1 mAChR; F77^2.56I) | α ACh (binding cooperativity with ACh, antilog in brackets) (F77^2.56I M1 mAChR; F77^2.56I) | α NMS (binding cooperativity with [3H]NMS, antilog in brackets) (F77^2.56I M1 mAChR; F77^2.56I) | Kb (F77^2.56I M1 mAChR; F77^2.56I, allosteric ternary complex model, 0.3 nM [3H]NMS, read-out: pKB (negative logarithm of the allosteric modulator equilibrium dissociation constant) (converted)) | Logα NMS (logarithm of binding cooperativity between [3H]NMS and modulator) (F77^2.56I M1 mAChR; F77^2.56I) | Modulatory effect on ACh inhibition of [3H]NMS binding (Y179^ECL2A M1 mAChR) | Modulatory effect on ACh inhibition of [3H]NMS binding (W400^7.35A M1 mAChR) | Kb (F77^2.56I M1 mAChR)
1 | Cc1cnc(C(=O)N[C@H]2CCOC[C@@H]2O)cc1Cc1ccc(-c2cscn2)cc1 [PF-06767832, N-((3R,4S)-3-hydroxytetrahydro-2H-pyran-4-yl)-5-methyl-4-(4-(thiazol-4-yl)benzyl)pyridine-2-carboxamide] | 1.83 ± 0.14 | 44.7 | 0.06 | 417 nM | −1.02 ± 0.12 | completely abolished | completely abolished | –
2 | Cn1cc(-c2ccc(COc3ccccc3-c3cc(=O)n(C4CCCCC4O)cn3)cc2)cn1 (centres unmarked) [MIPS1780, 3-(2-hydroxycyclohexyl)-6-(2-((4-(1-methyl-1H-pyrazol-4-yl)-benzyl)oxy)phenyl)pyrimidin-4(3H)-one] | 1.60 ± 0.09 | 25.7 | – | – | = −2 | completely abolished | completely abolished | 661 nM
3 | Cn1cc(-c2ccc(Cn3cc(C(=O)N[C@H]4CCCC[C@@H]4O)c4c(F)cc(F)cc43)cn2)cn1 [VU6004256, 4,6-difluoro-N-(1S,2S)-2-hydroxycyclohexyl-1-((6-(1-methyl-1H-pyrazol-4-yl)pyridine-3-yl)methyl)-1H-indole-3-carboxamide] | – | – | – | – | = −2 | completely abolished | completely abolished | 417 nM
